The source of these data is ChEMBL document CHEMBL1146507, “Antityrosinase principles and constituents of the petals of Crocus sativus” (J Nat Prod, 2004).

In brackets after ≈: the same amount, converted by molar mass.

Test [1] concerns the target T1, Tyrosinase (Agaricus bisporus, UniProt O42713).
T1 sequence (O42713 whole entry): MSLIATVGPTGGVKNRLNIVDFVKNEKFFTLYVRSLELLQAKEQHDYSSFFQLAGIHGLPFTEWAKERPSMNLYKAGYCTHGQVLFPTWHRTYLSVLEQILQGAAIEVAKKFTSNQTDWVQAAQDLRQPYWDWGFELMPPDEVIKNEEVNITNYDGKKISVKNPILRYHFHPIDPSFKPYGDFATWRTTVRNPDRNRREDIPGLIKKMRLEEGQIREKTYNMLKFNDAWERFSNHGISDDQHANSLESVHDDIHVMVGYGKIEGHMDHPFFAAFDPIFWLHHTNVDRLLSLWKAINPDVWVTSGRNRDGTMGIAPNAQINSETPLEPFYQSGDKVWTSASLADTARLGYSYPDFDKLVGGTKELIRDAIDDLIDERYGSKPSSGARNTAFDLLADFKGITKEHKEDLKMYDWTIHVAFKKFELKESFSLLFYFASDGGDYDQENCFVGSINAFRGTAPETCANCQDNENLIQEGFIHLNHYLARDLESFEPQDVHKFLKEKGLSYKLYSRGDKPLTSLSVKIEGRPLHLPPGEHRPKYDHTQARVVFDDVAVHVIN
Description: Inhibition of mushroom tyrosinase by spectrophotometry

Test [2] has as its system Radical scavenging activity. Nature of the test: Antioxidant activity assessed as DPPH radical scavenging activity at 0.1 mg/mL. The test is classed as functional. For orientation: DPPH is a stable violet radical that fades when it is reduced.
Test [3] deals with Radical scavenging activity. Nature of the test: Antioxidant activity assessed as DPPH radical scavenging activity. The test is classed as functional.

The term IC50 denotes the midpoint of a concentration-inhibition curve. `CC1=CC(=O)CC(C)(C)C1O` (configuration not stated): in test [1], the midpoint of inhibition, the IC50, lay at 1.1 mM.

Take `O=c1c(O)c(-c2ccc(O)cc2)oc2cc(O[C@@H]3O[C@H](CO)[C@@H](O)[C@H](O)[C@H]3O)cc(O)c12`: in test [2], the Activity stood at 91.2%.

As for `O=C(O)c1ccc(O)c(O)c1`, the Activity in test [2] turned out to be 89.9%.

For `O=c1c(O)c(-c2ccc(O)cc2)oc2cc(O)cc(O)c12`, the Activity in test [2] is 86.5%.

Compound `CC1=C(C=O)C(C)(C)[C@@H](O)[C@H](O)C1` [CROCUSATIN K] had an IC50 in test [1] of 0.26 mM.

For the compound `CC1=C(CO)C(C)(C)CC(=O)C1O` (configuration not stated) [CROCUSATIN L], the IC50 in test [1] came out at 1 mM.

Take `Cc1c(C)c2c(c(C)c1O)CC[C@@](C)(CCC[C@H](C)CCC[C@H](C)CCCC(C)C)O2` [ALPHA-TOCOPHEROL]: the IC50 in test [3] turned out to be 0.15 mg/mL (≈ 348 µM).
